Laboratory results: patent US20250281509A1, “SEQUENTIAL HORMONE THERAPY TO IMPROVE SURVIVAL AND ENHANCE RESPONSE TO IMMUNE THERAPY IN MEN WITH PROSTATE CANCER” (The Johns Hopkins University, priority 2021, published 2025)
Where “and” joins values, the source holds several entries; their conditions need not be identical. Identical values can stand only once. Like-named read-outs stand apart in the source and are kept apart here.

Assays:
CRPC [1] = test: Post hoc analysis of PSA response to subsequent hormonal therapies post-BAT (pilot study); format: in vivo, human; conditions: for patients with a PSA decline on second line therapy: after return to castrate testosterone levels post-BAT; for Maximum PSA decline upon secondary HT initiation (%): per subject, secondary HT received post-study after return to castrate T-levels post-BAT; for PSA decline upon re-challenge: subjects who had previously progressed on the same agent
Procedure: As part of the aforementioned pilot study, a post hoc exploratory analysis on the effect of BAT on subsequent hormonal therapies was performed. […] All of the patients had received at least one anti-androgen prior to starting the study, Table 2. PSA response to secondary hormonal therapy after return to castrate T-levels post-BAT.

mCPRC = conditions: 258 patients previously treated with docetaxel and one or more hormonal therapies; cited from earlier work
CRPC [2] = test: Pilot study of BAT plus etoposide in men with CRPC; format: in vivo, human
Procedure: Based on the preclinical results and potential mechanisms for growth inhibition that include androgen-induced double strand breaks and stabilization of AR preventing relicensing, a pilot study was conducted to evaluate the efficacy and safety of pharmacologic doses of testosterone to produce high dose testosterone levels in conjunction with oral etoposide in chronically castrated men with rising PSA and CRPC, FIG. 4A. Patients who had been continuously castrate for more than one year with minimal metastatic disease burden (≤5 total bone metastases and ≤10 total sites of metastases) and/or rising PSA were eligible, FIG. 4B. To achieve rapid cycling between high dose and near castrate serum testosterone (i.e., BAT) patients received intramuscular injection of 400 mg testosterone cypionate every 28 days. For the first 3 cycles of therapy patients received BAT plus oral etoposide 100 mg po/day days 1-14 of a 28-day cycle. After 3 cycles PSA response and objective response were assessed. Those patients with a PSA that was declining from peak levels and no objective evidence of disease progression or worsening pain were continued on therapy. Given the toxicity associated with etoposide and the lack of clinical response in an earlier trial, Hussain et al., 1994, patients who responding after 3 cycles of testosterone plus etoposide were continued on testosterone alone based on protocol amendment.

CRPC [3] = test: RESTORE Phase II study (NCT02090114); format: in vivo, human; conditions: re-challenge with the agent patients progressed on before BAT
Excerpt: The RESTORE study (NCT02090114) was an NIH sponsored Phase II study designed to assess the safety and efficacy of BAT in men (n=30 per cohort) with CRPC progressing on enzalutamide (Cohort A) or abiraterone (Cohort B), FIG. 6A. Shah et al., 2004. The primary endpoint of the first part of the study was to assess PSA response to BAT. Secondary endpoints included objective response, safety, and quality of life. The second part of the study was to determine in BAT could re-sensitize patients to repeat exposure to second line therapy that patients were progressing on prior to receiving BAT. Thus, patients progressing on enzalutamide were re-exposed to enzalutamide after BAT and similarly for abiraterone. Both arms of this study met the primary endpoint. PSA50 Response to BAT was 30% in patient's post-enzalutamide and 18% post-abiraterone, FIG. 6B. Shah et al., 2004. […] Overall duration of response to BAT and duration of response to re-exposure was longer in the post-enzalutamide vs. post-abiraterone cohort. The PSA50 response to re-exposure to enzalutamide was 71% vs. only 21% for patients re-exposed to abiraterone, FIG. 6B. Shah et al., 2004. A third cohort was later added (Cohort C) for men progressing on ADT alone. Overall, 90 men were treated on this study over a 4-year period (2014-2018).

[4] = test system: metastatic castration-resistant prostate cancer; conditions: cited from earlier work
LNCaP = test: Cell death, trypan blue exclusion assay; format: cell-based, human; conditions: ferrostatin-1 in combination with R1881
Procedure: Cells were stained with 0.4% trypan blue (Sigma) and incubated for 2-3 min at room temperature to allow dead cells to take up the blue stain. Cell viability was measured using an automated cell counter, Cellometer, (Nexcelom). Each experiment was repeated at least three times. Dead cells were calculated from subtracting the percentage of viable cells from 100. Mean percentage of dead cells was plotted on histograms.

early CRPC = conditions: cited from earlier work
[5] = cited from earlier work
CRPC [6] = conditions: cited from earlier work
LNCaP/A-xenografts = test: LNCaP xenografts in castrated mice with testosterone implants; format: in vivo
Excerpt: FIG. 3A and FIG. 3B show castrated NOG mice inoculated with LNCaP/A-cells were either exposed to BAT therapy (via an implanted testosterone filled capsule that was placed and removed at two-week intervals) or left in a permanently castrate state (diamond versus box). (FIG. 3A) Evaluation of indicated parameters in LNCaP/A-cells growing in castrate mice vs. castrate mice supplemented with subcutaneous testosterone-filled silastic implants; (FIG. 3B) Immunohistochemical staining for AR in harvested LNCaP/A-xenografts growing in castrate vs. castrate+T-pelleted mice. Blue arrows indicate mitotic figures;
A mechanism for growth inhibition by testosterone in CRPC cells has been recently explored. Beer et al., 2014; Litvinov et al., 2006; Vander Griend et al., 2007. These studies document that the increase in AR expression observed in these cells in the low testosterone environment creates a unique therapeutic vulnerability to selectively kill CRPCs. This observation is based on the fact that AR is involved in DNA relicensing and DNA replication AR must degraded each cell cycle for proper relicensing to occur. Overstabilization of the increased levels of AR observed in CRPC with high dose testosterone prevents complete degradation of AR via the proteasome during mitosis. Beer et al., 2014; Litvinov et al., 2006; Vander Griend et al., 2007. […] Beer et al., 2014. […] In xenografts treated with high dose testosterone, however, the Cell Death Index was approximately 3-fold higher. Beer et al., 2014. More strikingly, the percent of cells staining positive for AR in mitosis was approximately 10-fold higher in cells exposed to high dose testosterone vs. castrate only animals, FIG. 3b.

[7] = test system: advanced prostatic carcinoma; conditions: cited from earlier work
ferritin = test: Ferritin level by western blot; format: cell-based, human; conditions: LNCaP cells, 10 μM with 10 nM R1881
Procedure: Cell lysates were prepared either in 1× denaturing lysis buffer (Cell Signaling #9803) or non-denaturing lysis buffer (50 mM HEPES pH 7.4, 150 mM NaCl, 5 mM EDTA, 10% glycerol, 1% Nonidet P-40, and supplemented with phosphatase and protease inhibitors). For denaturing gels, lysates were mixed with Laemmli buffer containing β-mercaptoethanol, boiled for 5 mins and stored at −80° C. until use. Native lysates were mixed with native loading buffer (BioRad), and semi-native lysates were mixed with Laemmli buffer without beta-mercaptoethanol and stored at −80° C. without boiling. Native gels were resolved as described previously, Robitaille et al., 2016; denaturing and semi-native gels were resolved on 4-15% precast polyacrylamide gels (BioRad) followed by transfer to PVDF membrane. Membranes were blocked in 5% nonfat milk in wash buffer (Tris-buffered saline+0.1% Tween-20). After blocking, immunoblotting was performed with primary antibodies overnight at 4° C., followed by incubation with HRP-conjugated secondary antibodies for 1 h at room temperature. Blots were analyzed using the chemiluminescence method. Blots were developed using ECL Western blot detection reagent (GE Healthcare) for highly expressed proteins and Super Signal West Femto (Thermo Fisher) reagent for low expression proteins. Each experiment was repeated at least two to three times.

In the case of `CC(O)(CS(=O)(=O)c1ccc(F)cc1)C(=O)Nc1ccc(C#N)c(C(F)(F)F)c1` (centres unmarked) [bicalutamide], the “patients with a PSA decline on second line therapy” value (“patients with a PSA decline” for short) (CRPC [1]) is reported as 1/1, the “Maximum PSA decline upon secondary HT initiation (%)” value (CRPC [1]) is reported as −30.8% and the “PSA decline upon re-challenge” value (CRPC [1]) is reported as 30.9%.

For Pembrolizumab: anti-PD1/PDL1 antibody, the Objective response (mCPRC) is listed as under 5%.

For `C[C@]12CC[C@H]3[C@@H](CCC4=CC(=O)CC[C@@]43C)[C@@H]1CC[C@@H]2OC(=O)CCC1CCCC1` [testosterone cypionate], the “patients with a decline in PSA from baseline value” (CRPC [2]; 400 mg IM every 28 days, oral etoposide in first 3 cycles) was “Seven of fourteen”, the “patients developing new bone metastases” value (CRPC [2]; completing 3 months of therapy) was “None of the 14 patients” and the “median time to PSA progression” value (CRPC [2]; seven patients with PSA decline, range 95 to 454 days) was 221 days. For the same compound, the “complete response (CR)” value (CRPC [2]; ten evaluable subjects) was 10%, the “partial responses (PRs)” value (CRPC [2]; ten evaluable subjects) was 40% and the “progressive disease (PD), RECIST-evaluable soft tissue metastases” value (CRPC [2]; ten evaluable subjects) was 20%. For the same compound, the stable disease (CRPC [2]; ten evaluable subjects, median follow up 91 days) was 30%.

For `CC(=O)O[C@H]1CC[C@@]2(C)C(=CC[C@@H]3[C@@H]2CC[C@]2(C)C(c4cccnc4)=CC[C@@H]32)C1` [abiraterone, abiraterone acetate], the “patients with a PSA decline” value (CRPC [1]) was 4/4, the “Maximum PSA decline upon secondary HT initiation (%)” value (CRPC [1]) was −94.2% and −92.7% and −88.1% and −63.8% and the “patients with >50% PSA decline on second line therapy” value (CRPC [1]; post-BAT) was “Four of 4”. For the same compound, the “PSA50 response to re-exposure post-BAT” value (CRPC [3]) was 21%, the “PFS (median), clinical/radiographic” value ([4]; AR-V7-negative patients) was “not reached” and the PSA response rate ([4]; AR-V7-negative patients) was 68.0%. For the same compound, the “PSA-PFS (median)” value ([4]; AR-V7-negative patients) was “not reached”, the “PFS (median), clinical/radiographic” value ([4]; AR-V7-positive patients) was 2.3 months and the PSA response rate ([4]; AR-V7-positive patients) was 0%. The “PSA-PFS (median)” value ([4]; AR-V7-positive patients) was 1.3 months.

For `CCOC(=O)c1ccc(NC2CCCCC2)c(N)c1` [ferrostatin-1], the “SupraT induced cell death” value (LNCaP) was “abrogated cell death”.

For `C[C@]12CC[C@H]3[C@@H](CCC4=CC(=O)CC[C@@]43C)[C@@H]1CC[C@@H]2O` [transdermal testosterone, testosterone], the “patients with a decrease in PSA” value (early CRPC; 15 men, 2.5-7.5 mg/day) is given as 20%, the “largest decrease in PSA” value (early CRPC; in vivo) is given as 43% and the toxicities (early CRPC; in vivo) is given as “no grade 3 or 4 toxicities were observed with the exception of one person who was taken off study at week 53 for grade 4 cardiac toxicity”. For the same compound, the “median concentration of testosterone” value ([5]; 2.5 mg/day transdermal) was 305 ng/dL, the “median concentration of testosterone” value ([5]; 5.0 mg/day transdermal) was 308 ng/dL and the “median concentration of testosterone” value ([5]; 7.5 mg/day transdermal) was 297 ng/dL. For the same compound, the toxicities (CRPC [6]; 7.5 mg/day, 12 patients) was “no grade 3 or 4 toxicities and no pain flares”, the objective responses (CRPC [6]; 7.5 mg/day) was “No objective responses” and the “patients with >50% PSA decline” value (CRPC [6]; of 12 patients) was “one”. For the same compound, the “patients with at least 20% PSA declines” value (CRPC [6]; of 12 patients) was “Four”.

With `C[C@]12CC[C@H]3[C@@H](CCC4=CC(=O)CC[C@@]43C)[C@@H]1CC[C@@H]2O` [testosterone] the “Cell Death Index, increase vs castrate” value (LNCaP/A-xenografts; high dose testosterone vs castrate only) was “approximately 3 fold”, the “percent of cells staining positive for AR in mitosis, increase vs castrate” value (LNCaP/A-xenografts; high dose testosterone vs castrate only animals) was “approximately 10 fold” and the xenograft growth (LNCaP/A-xenografts; testosterone implants, high dose serum T-levels vs castrate only) was “significant growth inhibition”. For the same compound, the “patients with subjective improvement” value ([7]; long-term castrate group, testosterone for at least one month) was 4 of 5 and the “men with acid phosphatase decline” value ([7]; longer course of testosterone) was 2/5.

In the case of `CC1(C)NC(=O)N(c2ccc([N+](=O)[O-])c(C(F)(F)F)c2)C1=O` [nilutamide], the “patients with a PSA decline” value (CRPC [1]) is reported as 1/1, the “Maximum PSA decline upon secondary HT initiation (%)” value (CRPC [1]) is reported as −44.3% and the “PSA decline upon re-challenge” value (CRPC [1]) is reported as 44.3%.

For `CCN(CCO)CCCC(C)Nc1ccnc2cc(Cl)ccc12` (centres unmarked) [hydroxychloroquine], the “degradation of ferritin by SupraT” value (ferritin) was “prevented the degradation of ferritin by SupraT”.
